# Measurements reported in patent US11510886B2, “Metformin amino acid compounds and methods of using the same” (Laboratorios Silancs S.A. DE C.V., priority 2016, dated 2022).
# Legend:
# RAW264.7 macrophages = assay: GPBP and pro-IL-1β expression in stimulated RAW264.7 macrophages; format: cell-based
# Experimental: FIG. 87. […] RAW264.7 macrophages cultured in DMEM, supplemented with 10% FBS and antibiotics, were treated with the indicated concentrations of either SLN1, SLN10 for 2 hours, after which LPS (1 μg/mL) was added to cultures. After incubating for 16 hours, the relative expression quantification (RQ) for GPBP was analyzed by RT-qPCR, using HPRT-1 as a normalizer and non-stimulated cells (cells) as a reference point.
# FIG. 88. […] RAW264.7 macrophages were treated as shown in FIG. 87 and analyzed by flow cytometry, using for sample processing the Cytofix/Cytoperm (BD) kit, according to the manufacturer's instructions, as well as specific antibodies against GPBP (N27) and pro-IL-1β, conjugated with FITC and phycoerythrin (PE), correspondingly. The intensity of fluorescence (IF) emission median value is shown in arbitrary units (a.u.) for each of the series. Non-treated cells were used as a reference point and their corresponding isotype controls were carried out. The median is usually used in fluorescence quantitative studies to minimize the influence of extreme values that may distort the real mean value. Isotype controls were carried out to eliminate background, caused by nonspecific fluorescence; nonspecific antibodies from the same isotype of those used to detect GPBP and pro-IL-1β were used. […]
# L1 adipocytes = assay: Inflammation markers in L1 adipocytes treated with palmitate (RT-qPCR); format: cell-based, Mice; settings: palmitate 500 μM, 10 mM, 24 hours (FIG. 79)
# Experimental: FIG. 79. […] Differentiated L1 adipocytes (cells) were treated for 24 hours with palmitate (500 μM), either in the presence or in the absence of SLN1 or SLN10 (10 mM). Subsequently, the relative expression of inflammation markers was analyzed by RT and qPCR, using HPRT-1 as a normalizer and as a reference for expression levels of non-treated cells (MCP-1 and IL-12), and for those treated only with palmitate (proIL-1β, TNFα, iNOS, IL-6). Briefly, once finished, culture media treatments were collected for subsequent analysis, cells were washed with PBS, and RNA was extracted (illustra RNAspin Mini, GE Healthcare) and retro-transcribed (High Capacity cDNA Reverse Transcription Kit, Life Technologies); then, the genes under study were analyzed by using a quantitative PCR with specific probes (TaqMan® Gene Expression Assays, Life Technologies), estimating the relative quantification (RQ) with the ΔΔ Ct method.
# Palmitate is a saturated fatty acid that simulates an experimental obese state. It can be used as a pro-inflammatory stimulant for cytokines such as proIL-1β, TNFα, INOS, IL-6, MCP-1, and IL-12. Adipocytes cultured in the absence or presence of palmitate were treated with SLN1 or SLN10, and the expression of inflammation markers was determined by quantitative RT-PCR (FIG. 79).
# GPBP = target: T1, GPBP (Homo sapiens, UniProt Q9Y5P4); format: binding
# T1 sequence (Q9Y5P4 1-624): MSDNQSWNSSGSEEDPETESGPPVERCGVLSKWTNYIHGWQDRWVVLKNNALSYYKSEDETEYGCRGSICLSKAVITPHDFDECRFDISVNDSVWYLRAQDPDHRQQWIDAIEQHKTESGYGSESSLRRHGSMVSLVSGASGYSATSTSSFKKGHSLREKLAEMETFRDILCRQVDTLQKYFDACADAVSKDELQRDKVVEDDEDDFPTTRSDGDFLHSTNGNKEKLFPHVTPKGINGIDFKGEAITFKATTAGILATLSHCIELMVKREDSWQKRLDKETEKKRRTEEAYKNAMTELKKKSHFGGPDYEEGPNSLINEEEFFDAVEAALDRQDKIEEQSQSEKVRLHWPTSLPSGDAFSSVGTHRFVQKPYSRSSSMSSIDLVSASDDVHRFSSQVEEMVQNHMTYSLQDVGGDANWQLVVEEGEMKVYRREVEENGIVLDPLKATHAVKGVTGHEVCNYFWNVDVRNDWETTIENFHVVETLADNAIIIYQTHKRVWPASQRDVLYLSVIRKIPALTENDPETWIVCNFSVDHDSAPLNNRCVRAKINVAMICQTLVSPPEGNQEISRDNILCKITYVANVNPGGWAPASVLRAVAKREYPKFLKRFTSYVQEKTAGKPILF
# Experimental: GPBP·SLN10n (Equation 2) where
# The equation above was represented with the F data obtained at 26° C.
substance,measurement,setting,value
metformin lysinate,GPBP secretion induced by LPS and IC,RAW264.7 macrophages; FIG. 90,less ability to reduce GPBP secretion
same,induced expression of GPBP,"RAW264.7 macrophages; LPS or LPS and IFN-γ, flow cytometry (FIGS. 88, 89)",more efficiently inhibited by SLN10
same,attenuation of inflammatory response of adipocytes stimulated with palmitate,L1 adipocytes,much more effective
same,GPBP fluorescence emission at 370 nm (F370),GPBP,steady reduction (extinction)
same,Ksv (Stern-Volmer constant),GPBP,108800 M⁻¹
same,n (number of SLN10 molecules bound to GPBP),GPBP,0.7
